Test results from patent publication US8729048B2, “Methods and materials for assessing responsiveness to PARP inhibitors and platinating agents” (Mayo Foundation for Medical Education and Research, priority 2011, dated 2014).

Experiments:
Assay type in all cases: cell-based
[1] = test system: phospho-H2AX and phospho-DNA-PKcs foci in PEO1 cells; assay: Immunofluorescence / confocal foci in PEO1 cells
Experimental: (§1) FIG. 2. DNA-PK is activated following PARP inhibitor exposure in PEO1 cells. (A) Western blots for poly(ADP-ribose) polymer (pADPr) and phosphorylation of DNA-PK substrates (DNA-PKcs autophosphorylation at Thr^2609 and Histone H2AX at Ser^139) in PEO1 cells following 72 hours exposure to increasing concentrations of ABT-888 (0, 0.625, 1.25, 2.5, 5, 10, 20, and 40 μM). Hsp90, total DNA-PKcs, and Histone H1 are used as loading controls. (B) Phosphorylation of DNA-PK substrates after treatment for 72 hours with diluent (0.2% DMSO, lanes 1 and 4), 500 nM DNA-PK inhibitor AZ12594248 (DNA-PKi, lanes 2 and 5), or 5 μM ATM inhibitor KU55933 (ATMi, lanes 3 and 6) alone (lanes 1-3) or in combination with 20 μM ABT-888 (lanes 4-6). (C) Quantitation of cells positive for phospho-H2AX foci in PEO1 and PEO4 cells, following treatment with DMSO, 500 nM DNA-PKi, 20 μM ABT-888 (ABT), ABT-888 and DNA-PKi, 50 μM Etoposide (Etop), or 5 Gy ionizing radiation (IR). Cells were exposed to ABT-888 and/or DNA-PKi for 72 hours, etoposide for 1 hour, or allowed to recover for 1 hour after IR. Results are reported as mean±SEM of 3 independent experiments. (D) Confocal images of PEO1 cells treated as in […]. Phospho-Ser^139-H2AX is shown in green, phospho-Thr^2609-DNA-PKcs in red, and Hoechst 33258 in blue.
FIG. 8. PARP inhibition induces phosphorylation of DNA-PKcs selectively in PEO1 cells. (A) Quantitation of PEO1 cells positive for phospho-Ser^2056 DNA-PKcs foci following 72 hours exposure to increasing concentrations of ABT-888. (B) Quantitation of PEO1 cells positive for phospho-Ser^2056 DNA-PKcs foci following 72 hours exposure to diluent (0.2% DMSO), 500 nM DNA-PKi, 5 μM ATMi alone (columns 1-3) or with 20 μM ABT-888 (columns 4-6). (C) Representative confocal images of PEO1 cells from (B). Phospho-H2AX is shown in green, phospho-Thr^2609 DNA-PKcs in red, and Hoechst 33258 in blue. Results in (A) and (B) are presented as means±SEM of 3 independent experiments.
FIG. 9. siRNA-mediated knockdown of NHEJ components reduces ABT-888 induced formation of phospho-H2AX foci. PEO1 cells, following siRNA-mediated knockdown of Ku80 (A) or Artemis (B), were exposed to either diluent (0.1% DMSO) or 20 μM ABT-888 for 72 hours, fixed, and stained for phospho-H2AX foci. Positive nuclei were defined as having >10 foci. Results are presented as means±SEM of 3 independent experiments. […]
Coverslips were then washed three times with PBS and incubated for 1 h with Alexa Fluor 488- and/or 568-conjugated secondary antibody (Invitrogen) diluted 1:1000. […] Phospho-H2AX positive cells (defined as having >10 foci/cell) were counted on a Zeiss Axioplan microscope. […] Quantitation and image processing were performed using the Zeiss Zen software package and Adobe Photoshop CS3.

PEO1 cells = assay: Cytogenetics, metaphase spreads, PEO1
Experimental: FIG. 4. PARP inhibitor-induced chromosomal derangement and genomic instability is dependent on DNA-PK activity. (A) Representative images of metaphase spreads from cells treated with diluent (0.2% DMSO), 500 nM DNA-PKi, 2.5 μM ABT-888, or both ABT-888 and DNA-PKi for 72 hours. Chromosomal breaks are marked with arrowheads and radial structures are marked with asterisks. (B) Quantitation of data from (A) showing average radial chromosomes per cell (n=100 for each data point pooled from two separate experiments, error bars represent SEM). † indicate values that are zero. (C) Calculated mutagenesis frequency in BRCA2-mutant CAPAN1 cells after control treatment or exposure to ABT-888 with or without 250 nM DNA-PKi. Each bar represents the mean±SEM of 5-8 plates.
Cell harvest and metaphase slide preparation were performed for metaphase analysis as described elsewhere (Fletcher, Curr. Protoc. Hum. Genet., 2:Unit 10.13. (1994)). Fifty non-banded metaphases from each cell line were analyzed and scored for radial formations as well as major and minor breakage according to the International System of Human Cytogenetic Nomenclature. Images of cells with breakage were captured using a CytoVision Imaging System (Genetix; New Milton, UK).

[2] = test system: DNA-PK substrates (DNA-PKcs Thr2609, Histone H2AX Ser139) in PEO1 cells; assay: Immunoblotting for phosphorylation of DNA-PK substrates; details: 72 hours
Experimental: as §1
Cells were washed twice with calcium- and magnesium-free Dulbecco's phosphate-buffered saline (PBS) and solubilized in 6 M guanidine hydrochloride containing 250 mM Tris-HCl, pH 8.5 at 20° C., 10 mM EDTA, 1% (v/v) 2-mercaptoethanol, and 1 mM freshly added phenylmethylsulfonyl fluoride. After preparation for electrophoresis as described elsewhere (Kaufmann et al., Blood, 89:2098-2104 (1997)), aliquots containing 50 μg of protein (determined by the bicinchoninic acid method—S10) were separated on SDS-polyacrylamide gels containing 8% (w/v) acrylamide, electrophoretically transferred to nitrocellulose, and probed with immunological reagents as described elsewhere (Kaufmann, Anal. Biochem., 296:283-286 (2001)). […]

Compound | phospho-H2AX foci ([1]; 20 μM ABT-888, 72 hours) | DNA-PKcs autophosphorylation at Ser2056 ([1]; 72 hours) | ABT-888 induced phospho-H2AX foci after downregulation of Ku80 or Artemis ([1]; siRNA knockdown, 20 μM ABT-888, 72 hours) | chromosome breaks and aberrant radial structures (PEO1 cells; 2.5 μM ABT-888, 72 hours) | phosphorylation of DNA-PKcs at Thr2609 and H2AX at Ser139 ([2]; ABT-888 0-40 μM) | effect on ABT-888-induced formation of foci and phosphorylation of DNA-PKcs ([1]; 500 nM DNA-PKi with 20 μM ABT-888, 72 hours) | effect on ABT-888-induced chromosome breaks and radial structures (PEO1 cells; 500 nM DNA-PKi with 2.5 μM ABT-888, 72 hours) | effect on ABT-888-induced phosphorylation of DNA-PKcs and H2AX ([2]; with 20 μM ABT-888, 500 nM DNA-PKi or 5 μM ATMi)
C[C@]1(c2nc3c(C(N)=O)cccc3[nH]2)CCCN1 [ABT-888] | induced phospho-H2AX foci | increased | reduced ABT-888 induced phospho-H2AX foci | induced the formation of chromosome breaks and aberrant radial structures | phosphorylated in a dose-dependent manner |  |  | 
CCN1CCN(CC(=O)Nc2ccc(-c3cccc4c(=O)cc(N5CCOCC5)oc34)c3sc4ccccc4c23)CC1 [AZ 12594248] |  |  |  |  |  | reduced | substantially diminished this effect | prevented the ABT-888-induced phosphorylation of DNA-PKcs and H2AX
